Measured values: ChEMBL document CHEMBL4020771, “Activity of resveratrol triesters against primary acute lymphoblastic leukemia cells” (Bioorg Med Chem Lett, 2017)
pIC50: −log10 of the molar value. Active and inactive are the calls of the source. No cut-off for these calls is given here.

Experiments:
[1] = Cytotoxicity against human ALL5 cells after 120 hrs by MTT method; assay type: functional, cell-based; conditions: ALL5, 120 h
HeLa = assay: Cytotoxicity against human HeLa cells up to 10 uM after 72 hrs by MTT method; assay type: functional, cell-based
[2] = Cell cycle arrest in human ALL5 cells assessed as accumulation at subG1 phase at 17 uM after 48 hrs by propidium iodide staining based flow cytometric analysis (reference value: 3.44 %); assay type: functional
[3] = Cell cycle arrest in human ALL5 cells assessed as accumulation at G1 phase at 17 uM after 48 hrs by propidium iodide staining based flow cytometric analysis (reference value: 70.5 %); assay type: functional
[4] = Cell cycle arrest in human ALL5 cells assessed as accumulation at S phase at 17 uM after 48 hrs by propidium iodide staining based flow cytometric analysis (reference value: 11.7 %); assay type: functional
[5] = Cell cycle arrest in human ALL5 cells assessed as accumulation at G2 phase at 17 uM after 48 hrs by propidium iodide staining based flow cytometric analysis (reference value: 13.6 %); assay type: functional
[6] = Cell cycle arrest in human ALL5 cells assessed as accumulation at subG1 phase at 17 uM after 96 hrs by propidium iodide staining based flow cytometric analysis (reference value: 3.44 %); assay type: functional
[7] = Cell cycle arrest in human ALL5 cells assessed as accumulation at G1 phase at 17 uM after 96 hrs by propidium iodide staining based flow cytometric analysis (reference value: 70.5 %); assay type: functional
[8] = Cell cycle arrest in human ALL5 cells assessed as accumulation at S phase at 17 uM after 96 hrs by propidium iodide staining based flow cytometric analysis (reference value: 11.7 %); assay type: functional
[9] = Cell cycle arrest in human ALL5 cells assessed as accumulation at G2 phase at 17 uM after 96 hrs by propidium iodide staining based flow cytometric analysis (reference value: 13.6 %); assay type: functional
[10] = Cell cycle arrest in human ALL5 cells assessed as accumulation at subG1 phase at 17 uM after 120 hrs by propidium iodide staining based flow cytometric analysis (reference value: 3.44 %); assay type: functional
[11] = Cell cycle arrest in human ALL5 cells assessed as accumulation at G1 phase at 17 uM after 120 hrs by propidium iodide staining based flow cytometric analysis (reference value: 70.5 %); assay type: functional
[12] = Cell cycle arrest in human ALL5 cells assessed as accumulation at S phase at 17 uM after 120 hrs by propidium iodide staining based flow cytometric analysis (reference value: 11.7 %); assay type: functional
[13] = Cell cycle arrest in human ALL5 cells assessed as accumulation at G2 phase at 17 uM after 120 hrs by propidium iodide staining based flow cytometric analysis (reference value: 13.6 %); assay type: functional
ALL5 [14] = assay: Increase in p53 expression in human ALL5 cells at 17 uM after 96 hrs by Western blot analysis; assay type: functional, cell-based
[15] = Cell cycle arrest in human ALL5 cells assessed as accumulation at subG1 phase at 17 uM after 96 hrs in presence of CDK4/6 inhibitor palbociclib by propidium iodide staining based flow cytometric analysis (reference value: 1.47%); assay type: functional
[16] = Cell cycle arrest in human ALL5 cells assessed as accumulation at G1 phase at 17 uM after 96 hrs in presence of CDK4/6 inhibitor palbociclib by propidium iodide staining based flow cytometric analysis (reference value: 97.8%); assay type: functional
[17] = Cell cycle arrest in human ALL5 cells assessed as accumulation at S phase at 17 uM after 96 hrs in presence of CDK4/6 inhibitor palbociclib by propidium iodide staining based flow cytometric analysis (reference value: 0.07%); assay type: functional
[18] = Cell cycle arrest in human ALL5 cells assessed as accumulation at G2 phase at 17 uM after 96 hrs in presence of CDK4/6 inhibitor palbociclib by propidium iodide staining based flow cytometric analysis (reference value: 0.64%); assay type: functional
[19] = Cell cycle arrest in human ALL5 cells assessed as accumulation at subG1 phase at 25 uM after 48 hrs by propidium iodide staining based flow cytometric analysis (reference value: 3.44 %); assay type: functional
[20] = Cell cycle arrest in human ALL5 cells assessed as accumulation at G1 phase at 25 uM after 48 hrs by propidium iodide staining based flow cytometric analysis (reference value: 70.5 %); assay type: functional
[21] = Cell cycle arrest in human ALL5 cells assessed as accumulation at S phase at 25 uM after 48 hrs by propidium iodide staining based flow cytometric analysis (reference value: 11.7 %); assay type: functional
[22] = Cell cycle arrest in human ALL5 cells assessed as accumulation at G2 phase at 25 uM after 48 hrs by propidium iodide staining based flow cytometric analysis (reference value: 13.6 %); assay type: functional
[23] = Cell cycle arrest in human ALL5 cells assessed as accumulation at subG1 phase at 25 uM after 96 hrs by propidium iodide staining based flow cytometric analysis (reference value: 3.44 %); assay type: functional
[24] = Cell cycle arrest in human ALL5 cells assessed as accumulation at G1 phase at 25 uM after 96 hrs by propidium iodide staining based flow cytometric analysis (reference value: 70.5 %); assay type: functional
[25] = Cell cycle arrest in human ALL5 cells assessed as accumulation at S phase at 25 uM after 96 hrs by propidium iodide staining based flow cytometric analysis (reference value: 11.7 %); assay type: functional
[26] = Cell cycle arrest in human ALL5 cells assessed as accumulation at G2 phase at 25 uM after 96 hrs by propidium iodide staining based flow cytometric analysis (reference value: 13.6 %); assay type: functional
[27] = Cell cycle arrest in human ALL5 cells assessed as accumulation at subG1 phase at 25 uM after 120 hrs by propidium iodide staining based flow cytometric analysis (reference value: 3.44 %); assay type: functional
[28] = Cell cycle arrest in human ALL5 cells assessed as accumulation at G1 phase at 25 uM after 120 hrs by propidium iodide staining based flow cytometric analysis (reference value: 70.5 %); assay type: functional
[29] = Cell cycle arrest in human ALL5 cells assessed as accumulation at S phase at 25 uM after 120 hrs by propidium iodide staining based flow cytometric analysis (reference value: 11.7 %); assay type: functional
[30] = Cell cycle arrest in human ALL5 cells assessed as accumulation at G2 phase at 25 uM after 120 hrs by propidium iodide staining based flow cytometric analysis (reference value: 13.6 %); assay type: functional
ALL5 [31] = assay: Increase in p53 expression in human ALL5 cells at 25 uM after 96 hrs by Western blot analysis; assay type: functional, cell-based
[32] = Cell cycle arrest in human ALL5 cells assessed as accumulation at subG1 phase at 25 uM after 96 hrs in presence of CDK4/6 inhibitor palbociclib by propidium iodide staining based flow cytometric analysis (reference value: 1.47%); assay type: functional
[33] = Cell cycle arrest in human ALL5 cells assessed as accumulation at G1 phase at 25 uM after 96 hrs in presence of CDK4/6 inhibitor palbociclib by propidium iodide staining based flow cytometric analysis (reference value: 97.8%); assay type: functional
[34] = Cell cycle arrest in human ALL5 cells assessed as accumulation at S phase at 25 uM after 96 hrs in presence of CDK4/6 inhibitor palbociclib by propidium iodide staining based flow cytometric analysis (reference value: 0.07%); assay type: functional
[35] = Cell cycle arrest in human ALL5 cells assessed as accumulation at G2 phase at 25 uM after 96 hrs in presence of CDK4/6 inhibitor palbociclib by propidium iodide staining based flow cytometric analysis (reference value: 0.64%); assay type: functional

In the case of `O=C(Oc1ccc(/C=C/c2cc(OC(=O)c3ccccc3)cc(OC(=O)c3ccccc3)c2)cc1)c1ccccc1`, the pIC50 [1] was < 5.00.

In the case of `CC(=O)Oc1ccc(/C=C/c2cc(OC(C)=O)cc(OC(C)=O)c2)cc1` [TRIACETYLRESVERATROL], the Activity (HeLa) was “inactive”, the Activity [2] was 12.3% and the Activity [3] was 62.5%. The Activity [4] was 20.8%, the Activity [5] was 3.23% and the Activity [6] was 54.6%. It also gave an Activity [7] of 15.5%, an Activity [8] of 16% and an Activity [9] of 13.1%. For the same molecule, the Activity [10] was 60.9%, the Activity [11] was 18.5% and the Activity [12] was 12.5%. For the same molecule, the Activity [13] was 7.59%, the Activity (ALL5 [14]) was “Active” and the Activity [15] was 1.33%. The Activity [16] was 98.1%, the Activity [17] was 0.06% and the Activity [18] was 0.54%. The pIC50 [1] was 5.47.

With `COc1cccc(C(=O)Oc2ccc(/C=C/c3cc(OC(=O)c4cccc(OC)c4OC)cc(OC(=O)c4cccc(OC)c4OC)c3)cc2)c1OC` the pIC50 [1] was < 5.00.

With `O=C(/C=C/c1ccccc1)Oc1ccc(/C=C/c2cc(OC(=O)/C=C/c3ccccc3)cc(OC(=O)/C=C/c3ccccc3)c2)cc1` the pIC50 [1] was < 5.00.

For `CC(C)C(=O)Oc1ccc(/C=C/c2cc(OC(=O)C(C)C)cc(OC(=O)C(C)C)c2)cc1`, the Activity (HeLa) was “inactive”, the Activity [19] was 23.1% and the Activity [20] was 72.5%. The Activity [21] was 2.14%, the Activity [22] was 2.02% and the Activity [23] was 48.1%. It also gave an Activity [24] of 44.8%, an Activity [25] of 6.34% and an Activity [26] of 0.34%. It also gave an Activity [27] of 63.7%, an Activity [28] of 26.1% and an Activity [29] of 9.11%. The Activity [30] was 0.49%, the Activity (ALL5 [31]) was “Active” and the Activity [32] was 5.76%. The Activity [33] was 93.6%, the Activity [34] was 0.21% and the Activity [35] was 0.45%. The pIC50 [1] was 5.29.

Molecule `COc1cc(/C=C/C(=O)Oc2ccc(/C=C/c3cc(OC(=O)/C=C/c4ccc(O)c(OC)c4)cc(OC(=O)/C=C/c4ccc(O)c(OC)c4)c3)cc2)ccc1O` has a pIC50 [1] of 5.00.

With `O=C(Oc1ccc(/C=C/c2cc(OC(=O)c3c(Cl)cccc3Cl)cc(OC(=O)c3c(Cl)cccc3Cl)c2)cc1)c1c(Cl)cccc1Cl` the pIC50 [1] was < 5.00.

For `O=C(/C=C/c1ccc(O)cc1)Oc1ccc(/C=C/c2cc(OC(=O)/C=C/c3ccc(O)cc3)cc(OC(=O)/C=C/c3ccc(O)cc3)c2)cc1`, the pIC50 [1] was < 5.00.
